Test results: US6737383B1, “Herbicidal oxadiazolidines” (priority 1999, dated 2004)

How the values were obtained:
giant foxtail = test: Test B pre/postemergence giant foxtail; format: in vivo, Setaria faberii
Summary of the method: (§1)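 Response is a visual 0-to-10 score relative to untreated plants, where 0 means no effect and 10 means complete control, taken twelve to sixteen days after application. Treatments went onto soil at planting and onto foliage of 1- to 4-leaf plants, using a surfactant-containing non-phytotoxic solvent.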

morningglory = test: Test B pre/postemergence morningglory; format: in vivo, Ipomoea hederacea
Summary of the method: as §1

cocklebur = test: Test B pre/postemergence cocklebur; format: in vivo, Xanthium strumarium
Summary of the method: as §1

bamyardgrass = test: Test B flood test barnyardgrass; format: in vivo, Echinochloa crus-galli; conditions: for Plant response rating, Barnyardgrass (0 to 10 scale, 0 is no effect, 10 is complete control) / Barnyardgrass plant response rating (0 to 10 scale, 0 is no effect, 10 is complete control): visual evaluation after twelve to sixteen days; for Barnyardgrass plant response rating (0 to 10 scale, 0 is no effect, 10 is complete control): under heading Pre-emergence
Summary of the method: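 Flood test on plants grown to the 2-leaf stage; treated plants kept in greenhouse twelve to sixteen days, then visually rated against controls on a 0 (no effect) to 10 (complete control) scale.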

[1] = Postemergence, Rate 125 g/ha, scale 0 to 10, 0 is no effect, 10 is complete control
[2] = Postemergence, Rate 250 g/ha, scale 0 to 10, 0 is no effect, 10 is complete control
[3] = Postemergence, Rate 500 g/ha, scale of 0 to 10 where 0 is no effect and 10 is complete control
[4] = Preemergence, Rate 62 g/ha, scale 0 to 10 (0 no effect, 10 complete control)
[5] = Preemergence, Rate 125 g/ha, scale of 0 to 10 where 0 is no effect and 10 is complete control
[6] = Preemergence, Rate 250 g/ha, scale 0 to 10, 0 is no effect, 10 is complete control
[7] = Preemergence, Rate 500 g/ha, scale 0 to 10, 0 is no effect, 10 is complete control
[8] = Rate 62 g/ha, Postemergence, scale of 0 to 10 where 0 is no effect and 10 is complete control
[9] = Rate 62 g/ha, flood test species, Pre-emergence
[10] = Rate 125 g/ha, flood test species
[11] = Rate 250 g/ha, Pre-emergence, flood-test species, scale 0 to 10, 0 is no effect, 10 is complete control
[12] = Rate 500 g/ha, Pre-emergence, flood test species, scale 0 to 10 (0 no effect, 10 complete control)
[13] = Postemergence, Rate 250 g/ha, scale 0 to 10
[14] = Rate 125 g/ha, Postemergence, scale 0 to 10, 0 is no effect, 10 is complete control

| Compound | Plant response rating, Giant foxtail (giant foxtail; [1]) | Plant response rating, Giant foxtail (giant foxtail; [2]) | Giant foxtail plant response rating (giant foxtail; [3]) | Plant response rating, Giant foxtail (giant foxtail; [4]) | Plant response rating, Giant foxtail (giant foxtail; [5]) | Giant foxtail plant response rating (giant foxtail; [6]) | Giant foxtail plant response rating (giant foxtail; [7]) | Giant foxtail plant response rating (giant foxtail; [8]) | Plant response rating, Morningglory (morningglory; [2]) | Morningglory plant response rating (morningglory; [3]) | Plant response rating, Morningglory (morningglory; [4]) | Plant response rating, Morningglory (morningglory; [5]) | Morningglory plant response rating (morningglory; [6]) | Morningglory plant response rating (morningglory; [7]) | Cocklebur plant response rating (cocklebur; [3]) | Plant response rating, Cocklebur (cocklebur; [4]) | Plant response rating, Cocklebur (cocklebur; [5]) | Cocklebur plant response rating (cocklebur; [6]) | Cocklebur plant response rating (cocklebur; [7]) | Cocklebur plant response rating (cocklebur; [8]) | other results |
| --- | --- | --- | --- | --- | --- | --- | --- | --- | --- | --- | --- | --- | --- | --- | --- | --- | --- | --- | --- | --- | --- |
| Cc1nc(Cl)sc1C(C)n1c(=O)on(C(=O)N(c2ccc(Cl)cc2)C(C)C)c1=O (stereo not shown) [Compound 406] | 0 | 0 | 0 | 0 | 0 | 2 | 9 | 0 | 2 | 2 | 0 | 0 | 0 | 0 | 0 | 0 | 0 | 0 | 0 | 0 | Plant response rating, Cocklebur (cocklebur; [1]): 0; Plant response rating, Cocklebur (cocklebur; [2]): 0; Plant response rating, Barnyardgrass (0 to 10 scale, 0 is no effect, 10 is complete control) (bamyardgrass; [9]): 0; Barnyardgrass plant response rating (0 to 10 scale, 0 is no effect, 10 is complete control) (bamyardgrass; [10]): 0; Barnyardgrass plant response rating (bamyardgrass; [11]): 0; Barnyardgrass plant response rating (bamyardgrass; [12]): 0 |
| CC(C)N(C(=O)n1oc(=O)n(C(C)CCl)c1=O)c1ccc(F)cc1F (stereo not shown) [Compound 408] | 9 | 9 | 9 | 10 | 10 | 10 | 10 | 9 | 7 | 7 | 0 | 0 | 0 | 7 | 3 | 0 | 0 | 0 | 0 | 0 | Plant response rating, Cocklebur (cocklebur; [1]): 0; Plant response rating, Cocklebur (cocklebur; [2]): 0; Plant response rating, Barnyardgrass (0 to 10 scale, 0 is no effect, 10 is complete control) (bamyardgrass; [9]): 0; Barnyardgrass plant response rating (0 to 10 scale, 0 is no effect, 10 is complete control) (bamyardgrass; [10]): 0; Barnyardgrass plant response rating (bamyardgrass; [11]): 0; Barnyardgrass plant response rating (bamyardgrass; [12]): 0 |
| C=CC[Si](C)(C)Cn1c(=O)on(C(=O)N(c2ccc(F)cc2)C(C)C)c1=O [Compound 426] | – | – | 9 | 9 | 9 | 10 | 10 | 3 | – | 9 | 0 | 0 | 0 | 6 | 0 | 0 | 0 | 0 | 0 | 0 | Giant foxtail plant response rating (giant foxtail; [13]): 9; Giant foxtail plant response rating (giant foxtail; [14]): 7; Morningglory plant response rating (morningglory; [13]): 9; Morningglory plant response rating (morningglory; [14]): 7; Cocklebur plant response rating (cocklebur; [13]): 0; Cocklebur plant response rating (cocklebur; [14]): 0; Barnyardgrass plant response rating (bamyardgrass; Postemergence block (flood test species), Rate 250 g/ha, scale 0 to 10): 0; Barnyardgrass plant response rating (bamyardgrass; Postemergence section (flood test species), Rate 500 g/ha, scale of 0 to 10 where 0 is no effect and 10 is complete control): 0; Barnyardgrass plant response rating (bamyardgrass; Rate 62 g/ha, Postemergence (flood test species), scale of 0 to 10 where 0 is no effect and 10 is complete control): 0; Barnyardgrass plant response rating (bamyardgrass; Rate 125 g/ha, Postemergence section (flood test species), scale 0 to 10, 0 is no effect, 10 is complete control): 0 |
